Test results taken from patent US20030224940A1, “Alpha-sulfin-and alpha-sulfonamino acid amide derivatives” (priority 2000, published 2003).
Read-outs that look alike come from different tables or passages of the source.

Legend:
[1] = system: Phytophthora; test: whole plant or invertebrate; type: in vivo; conditions: in Solanum lycopersicum, read-out: inhibit fungal infestation
[2] = system: Phytophthora; test: whole plant or invertebrate; type: in vivo; conditions: in Solanum tuberosum, read-out: inhibit fungal infestation
[3] = system: Plasmopara viticola; conditions: read-out: inhibit fungal infestation
Experimental: D-1: Action Against Plasmopara viticola (downy mildew) on Vines
5 week old grape seedlings cv. Gutedel are treated with the formulated test compound in a spray chamber. One day after application grape plants are inoculated by spraying a sporangia suspension (4×10^4 sporangia/ml) on the lower leaf side of the test plants. After an incubation period of 6 days at +21° C. and 95% r. h. in a greenhouse the disease incidence is assessed.

| SMILES | melting point | inhibition at 200 ppm [1] | inhibition at 200 ppm [2] | inhibition at 200 ppm [3] |
| --- | --- | --- | --- | --- |
| CCS(=O)(=O)N[C@H](C(=O)NCc1ccc(OCc2ccccc2)c(OC)c1)C(C)C | 141 to 152 °C | – | – | – |
| CCS(=O)(=O)N[C@H](C(=O)NCc1ccc(OCC#Cc2ccc(Cl)cc2)c(OC)c1)C(C)C [Compound A1.1, (S)-N-{4-[3-(4-Chloro-phenyl)-prop-2-ynyloxy]-3-methoxy-benzyl}-2-ethanesulfonylamino-3-methyl-butyramide] | 162 to 163 °C | ≥ 80% | ≥ 80% | ≥ 80% |
| CCS(=O)(=O)N[C@H](C(=O)NCc1ccc(O)c(OC)c1)C(C)C | 49 to 50 °C | – | – | – |
